≈ marks a conversion by molar mass, not a printed value. Where “and” joins values, the source holds several entries; their conditions need not be identical. Identical values can stand only once. Like-named read-outs stand apart in the source and are kept apart here.
Legend:
[1] = type: cell-based; conditions: positive control
M. tuberculosis H37Rv = assay: microbe, parasite or virus in culture; type: cell-based, Mycobacterium tuberculosis; conditions: for SI (CC50/MIC): ratio of CC50 for L929 fibroblasts to MIC for strain H37Rv
in vitro = type: cell-based, murine; conditions: mouse
Protocol: (§1) A549 human pulmonary epithelial cells (KCLB 10185), human embryonic kidney (HEK) 293 cells (KCLB 21573), human THP-1 leukemia cells (KCLB 40202), human neuroblastoma SH-SY5Y cells (KCLB 22266), Murine Raw 264.7 macrophages (KCLB 40071), and L929 murine fibroblasts (KCLB 10001) were purchased from the KCLB (Seoul, Korea). Cytotoxicity testing was performed using the MTT assay and the WST-1 cell viability assay as previously described.

M. tuberculosis H37Ra = assay: microbe, parasite or virus in culture; type: cell-based, Mycobacterium tuberculosis
[2] = system: Murine Raw 264.7 macrophages; assay: in vitro; type: cell-based; conditions: RAW, MTT assay (Table S1)
Protocol: as §1

L929 murine fibroblasts = assay: in vitro; type: cell-based; conditions: L929, MTT assay (Table S1)
Protocol: as §1

M. szulgai = assay: microbe, parasite or virus in culture; type: cell-based; conditions: Mycobacterium szulgai
M. colombiense = assay: microbe, parasite or virus in culture; type: cell-based; conditions: Mycobacterium colombiense
M. aubagnense = assay: microbe, parasite or virus in culture; type: cell-based, Mycobacterium aubagnense; conditions: Mycolicibacterium aubagnense
M. kansasii = assay: microbe, parasite or virus in culture; type: cell-based; conditions: Mycobacterium kansasii
M. xenopi = assay: microbe, parasite or virus in culture; type: cell-based; conditions: Mycobacterium xenopi
M. conceptionense = assay: microbe, parasite or virus in culture; type: cell-based, Mycobacterium conceptionense; conditions: Mycolicibacterium senegalense
M. intracellulare = assay: microbe, parasite or virus in culture; type: cell-based; conditions: Mycobacterium intracellulare
M. bovis = assay: microbe, parasite or virus in culture; type: cell-based; conditions: Mycobacterium tuberculosis variant bovis
M. heraklionease = assay: microbe, parasite or virus in culture; type: cell-based; conditions: Mycobacterium
M. avium = assay: microbe, parasite or virus in culture; type: cell-based; conditions: Mycobacterium avium
M. bolletii = assay: microbe, parasite or virus in culture; type: cell-based, Mycobacterium bolletii; conditions: Mycobacteroides abscessus
M. massiliense = assay: microbe, parasite or virus in culture; type: cell-based, Mycobacterium massiliense; conditions: Mycobacteroides abscessus
M. phlei = assay: microbe, parasite or virus in culture; type: cell-based, Mycobacterium phlei; conditions: Mycolicibacterium phlei
M. gilvum = assay: microbe, parasite or virus in culture; type: cell-based, Mycobacterium gilvum; conditions: Mycolicibacterium gilvum
M. fortuitum = assay: microbe, parasite or virus in culture; type: cell-based, Mycobacterium fortuitum; conditions: Mycolicibacterium fortuitum
M. phocaicum = assay: microbe, parasite or virus in culture; type: cell-based, Mycobacterium phocaicum; conditions: Mycolicibacterium phocaicum
M. marseiliense = assay: microbe, parasite or virus in culture; type: cell-based; conditions: Mycobacterium
[3] = system: clinically isolated MDR, XDR, and TDR M. tuberculosis strains; assay: microbe, parasite or virus in culture; type: cell-based; conditions: Mycobacterium tuberculosis
M. marinum = assay: microbe, parasite or virus in culture; type: cell-based; conditions: Mycobacterium marinum
M. goodie = assay: microbe, parasite or virus in culture; type: cell-based; conditions: Mycobacterium
M. arupense = assay: microbe, parasite or virus in culture; type: cell-based, Mycobacterium arupense; conditions: Mycolicibacter arupensis
M. abscessus = assay: microbe, parasite or virus in culture; type: cell-based, Mycobacterium abscessus; conditions: Mycobacteroides abscessus
M. gordonae = assay: microbe, parasite or virus in culture; type: cell-based; conditions: Mycobacterium gordonae
M. chitae = assay: microbe, parasite or virus in culture; type: cell-based, Mycobacterium chitae; conditions: Mycolicibacterium chitae
M. neoaurum = assay: microbe, parasite or virus in culture; type: cell-based, Mycobacterium neoaurum; conditions: Mycolicibacterium neoaurum
M. smegmatis = assay: microbe, parasite or virus in culture; type: cell-based, Mycobacterium smegmatis; conditions: Mycolicibacterium smegmatis
M. peregrinum = assay: microbe, parasite or virus in culture; type: cell-based, Mycobacterium peregrinum; conditions: Mycolicibacterium peregrinum
M. kyorinense = assay: microbe, parasite or virus in culture; type: cell-based; conditions: Mycobacterium kyorinense
[4] = TA98, 1.0 μg/plate, presence of S9 mix
[5] = TA100, 2.0 μg/plate, presence of S9 mix
[6] = TA1535, 3.0 μg/plate, presence of S9 mix
[7] = TA1537, 3.0 μg/plate, presence of S9 mix
[8] = WP2uvrA (pKM101), 2.0 μg/plate, presence of S9 mix
[9] = Mycobacterium tuberculosis, H37RV, read-out: MIC
[10] = Mycobacterium tuberculosis, H37RA
[11] = TA1537, 80.0 μg/plate, absence of S9 mix
[12] = TA100, 1.5 μg/plate, absence of S9 mix
[13] = TA1535, 1.5 μg/plate, absence of S9 mix

With `Nc1ccc2cc3ccccc3cc2c1` [2-AA] the “Individual revertant colony counts” value [1, 4] was 402 colonies per plate and 414 colonies per plate, the Mean revertant colonies [1, 4] was 408 colonies per plate and the “Individual revertant colony counts” value [1, 5] was 555 colonies per plate and 578 colonies per plate. For the same compound, the Mean revertant colonies [1, 5] was 567 colonies per plate, the “Individual revertant colony counts” value [1, 6] was 96 colonies per plate and 103 colonies per plate and the Mean revertant colonies [1, 6] was 100 colonies per plate. The “Individual revertant colony counts” value [1, 7] was 193 colonies per plate and 184 colonies per plate, the Mean revertant colonies [1, 7] was 189 colonies per plate and the “Individual revertant colony counts” value [1, 8] was 409 colonies per plate and 430 colonies per plate. It also gave a Mean revertant colonies [1, 8] of 420 colonies per plate.
For `COC(=O)c1cc2ccc(OCC(C)C)cc2c2cc(OC)c(OC)cc12` [DPGA5], the MIC (M. tuberculosis H37Rv; [9]) was > 100 µg/mL, the “SI (CC50/MIC)” value (M. tuberculosis H37Rv) was <0.4 and the CC50 (in vitro; L929, MTT assay (Table S1)) was 40.3 µg/mL (≈ 109 µM). The CC50 (in vitro; RAW, MTT assay (Table S1)) was > 100 µg/mL and the MIC (M. tuberculosis H37Ra; [10]) was > 100 µg/mL.
In the case of `CCCCOc1ccc(/C=C(/C(=O)O)c2ccc(OC)c(OC)c2)cc1` [DPGA8], the MIC (M. tuberculosis H37Rv) is reported as >100 µg/mL, the “SI (CC50/MIC)” value (M. tuberculosis H37Rv) is reported as <0.9 and the CC50 [2] is reported as >100 µg/mL. For the same compound, the CC50 (L929 murine fibroblasts) was 89.5 µg/mL (≈ 251 µM) and the MIC (M. tuberculosis H37Ra) was >100 µg/mL.
In the case of `Nc1c2ccccc2nc2ccccc12` [9-AA], the “Individual revertant colony counts” value [1, 11] is reported as 539 colonies per plate and 571 colonies per plate and the Mean revertant colonies [1, 11] is reported as 555 colonies per plate.
In the case of `NC(=O)c1cnccn1` [PZA, pyrazinamide], the MIC (M. szulgai) is reported as > 100 µg/mL, the MIC (M. colombiense) is reported as > 100 µg/mL and the MIC (M. aubagnense) is reported as > 100 µg/mL. For the same compound, the MIC (M. kansasii) was > 100 µg/mL, the MIC (M. xenopi) was > 100 µg/mL and the MIC (M. conceptionense) was > 100 µg/mL. For the same compound, the MIC (M. intracellulare) was > 100 µg/mL, the MIC (M. bovis) was > 100 µg/mL and the MIC (M. heraklionease) was > 100 µg/mL. The MIC (M. avium) was > 100 µg/mL, the MIC (M. bolletii) was > 100 µg/mL and the MIC (M. tuberculosis H37Rv; [9]) was > 100 µg/mL. For the same compound, the MIC (M. massiliense) was > 100 µg/mL, the MIC (M. phlei) was > 100 µg/mL and the MIC (M. gilvum) was > 100 µg/mL. The MIC (M. fortuitum) was > 100 µg/mL, the MIC (M. phocaicum) was > 100 µg/mL and the MIC (M. marseiliense) was > 100 µg/mL. For the same compound, the MIC [3] was > 100 µg/mL, the MIC ([3]; TDR-1) was > 100 µg/mL and the MIC ([3]; TDR-2) was > 100 µg/mL. The MIC ([3]; TDR-3) was > 100 µg/mL, the MIC (M. marinum) was > 100 µg/mL and the MIC (M. goodie) was > 100 µg/mL. The MIC (M. arupense) was > 100 µg/mL, the MIC (M. abscessus) was > 100 µg/mL and the MIC (M. gordonae) was > 100 µg/mL. For the same compound, the MIC (M. chitae) was > 100 µg/mL, the MIC (M. neoaurum) was > 100 µg/mL and the MIC (M. smegmatis) was > 100 µg/mL. The MIC (M. peregrinum) was > 100 µg/mL and the MIC (M. kyorinense) was > 100 µg/mL.
In the case of `COC(=O)c1cc2ccc(O)cc2c2cc(OC)c(OC)cc12` [DPGA4], the MIC (M. tuberculosis H37Rv; [9]) is reported as > 100 µg/mL, the “SI (CC50/MIC)” value (M. tuberculosis H37Rv) is reported as <0.3 and the CC50 (in vitro; L929, MTT assay (Table S1)) is reported as 34.9 µg/mL (≈ 112 µM). For the same compound, the CC50 (in vitro; RAW, MTT assay (Table S1)) was 37.5 µg/mL (≈ 120 µM) and the MIC (M. tuberculosis H37Ra; [10]) was > 100 µg/mL.
For `COC(=O)[C@H]1CCC(=O)N1Cc1cc2ccc(OCc3ccccc3)cc2c2cc(OC)c(OC)cc12` [PP3R, Methyl (R)-1-{[3-(Benzyloxy)-6,7-dimethoxy-9-phenanthryl]methyl}-5-oxopyrrolidine-2-carboxylate], the MIC (M. tuberculosis H37Rv; [9]) was > 100 µg/mL and the MIC (M. tuberculosis H37Ra; [10]) was > 100 µg/mL.
For `[N-]=[N+]=[N-].[Na+]` [SA], the “Individual revertant colony counts” value [1, 12] was 734 colonies per plate and 732 colonies per plate, the Mean revertant colonies [1, 12] was 733 colonies per plate and the “Individual revertant colony counts” value [1, 13] was 588 colonies per plate and 535 colonies per plate. The Mean revertant colonies [1, 13] was 562 colonies per plate.

Source: paper PMC9154192 (PLoS Biology, 2022)
